In patent US20220380370A1 (Goldfinch Bio, Inc., priority 2019, published 2022):

Tests used:
CB1 receptor = target: T1, CB1 receptor (Homo sapiens, UniProt P21554); test: CB1 cAMP antagonist assay (LANCE Ultra cAMP kit); assay type: cell-based; settings: CHO cells stably expressing the CB1 receptor; forskolin and agonist CP55940 at EC90
T1 construct: Perkin Elmer (CB1-CHO cells); host or cells: Flp-In CHO cells or CB1-CHO cells, stably expressing
Text: (§1) LANCE Ultra cAMP kit (Perkin Elmer) was used to quantitate the amount of 3′,5′-cyclic adenosine monophosphate (cAMP) produced in Flp-In CHO cells (Invitrogen) stably expressing the CB1 receptor, CB1-CHO cells (Perkin Elmer) stably expressing the CB1 receptor, or CB2-CHO cells (Perkin Elmer) stably expressing the CB2 receptor.
(§2) Forskolin was initially titrated to determine the response of the cells. The EC90 of forskolin was used for compound testing. CP55940 was titrated and used with EC90 of forskolin to determine the level of agonist stimulation. EC90 of the agonist was used for subsequent compound testing. For the CB1 assay, Forskolin (Sigma), CP55940 (Cayman Chemicals), and AM251 (MCE) were diluted in 100% DMSO, starting at 100 mM, 1 mM, and 1 mM respectively, in 3-fold serial dilutions. For the CB2 assay, Forskolin (Sigma), CP55940 (Cayman Chemicals), and AM630 (MCE) were diluted in 100% DMSO, starting at 100 mM, 1 mM, and 30 mM respectively, in 3-fold serial dilutions. Test compounds were diluted in 100% DMSO starting from 10 mM, 3-fold dilutions. The cAMP assay buffer contains 1× Hank's Buffered Saline Solution with Ca^2+ and Mg^2+ (Invitrogen), 5.3 mM HEPES (Invitrogen), 0.05% BSA, 0.5 mM IBMX (Sigma). For all assays, cells were harvested, counted, and diluted in cAMP assay buffer to 1×10^5 cells/mL. Only cells with viability >85% were used for the assay. Cells were seeded at 1000 cells/well in 384-well plates and 10 nL/well AM251 (for CB1), AM630 (for CB2) or test compound was added and incubated at 37° C. for 10 min. Then forskolin and agonist were added to reach their EC90 and incubated at 25° C. for 30 min. To detect the amount of cAMP produced, 5 μL of a 100× diluted stock of Eu-cAMP tracer and 5 μL of 200× diluted stock of Ulight-anti-cAMP were added to each well, and the plate incubated at 25° C. for 15 min. The FRET signal was read using an EnVision microplate reader (λex=320 nm, λem=615 nm and 665 nm). The results are expressed as % Inhibition, where % inhibition=100−100×(U−C2)/(C1−C2), where U is the FRET ratio (λem (665 nm)/λem (615 nm)) of sample, C1 is the average of the high controls (signal with no antagonist added), and C2 is the average of low controls (signal with the highest concentration of AM251 or AM630 antagonist). The IC50 is determined by fitting the percentage of inhibition as a function of compound concentrations with the Hill equation, using a 4-parameter fit in either XLfit or GraphPad Prism.

CB2 receptor = target: T2, CB2 receptor (Homo sapiens, UniProt P34972); test: CB2 cAMP antagonist assay (LANCE Ultra cAMP kit); assay type: cell-based; settings: CB2-CHO cells stably expressing the CB2 receptor; forskolin and agonist CP55940 at EC90
T2 construct: host or cells: CB2-CHO cells, stably expressing
Text: as §1, §2

T2 sequence (P34972 whole entry): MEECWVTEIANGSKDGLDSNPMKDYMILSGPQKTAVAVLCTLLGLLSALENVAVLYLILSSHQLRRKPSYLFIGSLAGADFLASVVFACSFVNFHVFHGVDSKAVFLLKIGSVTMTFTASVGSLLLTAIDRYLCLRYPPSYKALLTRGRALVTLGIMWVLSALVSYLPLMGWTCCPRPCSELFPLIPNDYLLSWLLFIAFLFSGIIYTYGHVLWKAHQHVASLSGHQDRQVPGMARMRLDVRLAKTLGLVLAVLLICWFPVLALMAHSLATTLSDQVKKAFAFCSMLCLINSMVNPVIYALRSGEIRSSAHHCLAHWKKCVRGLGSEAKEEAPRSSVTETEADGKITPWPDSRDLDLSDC
T1 sequence (P21554 whole entry): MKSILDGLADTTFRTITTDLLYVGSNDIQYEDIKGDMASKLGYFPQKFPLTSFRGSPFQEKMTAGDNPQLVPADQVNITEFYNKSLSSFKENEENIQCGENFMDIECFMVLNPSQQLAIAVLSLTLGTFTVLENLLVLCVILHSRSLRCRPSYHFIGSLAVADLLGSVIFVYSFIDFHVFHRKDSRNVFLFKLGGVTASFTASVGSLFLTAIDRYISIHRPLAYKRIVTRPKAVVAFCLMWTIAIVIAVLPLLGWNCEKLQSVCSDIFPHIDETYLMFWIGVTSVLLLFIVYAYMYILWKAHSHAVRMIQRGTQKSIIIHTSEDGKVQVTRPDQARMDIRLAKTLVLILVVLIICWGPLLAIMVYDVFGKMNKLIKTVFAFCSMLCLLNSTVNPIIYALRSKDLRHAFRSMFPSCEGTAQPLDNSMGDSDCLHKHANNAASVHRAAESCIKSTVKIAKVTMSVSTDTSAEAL

Structure (SMILES)	IC50 (CB1 receptor)	IC50 (CB2 receptor)
C[C@H](c1ccc(C(=O)NCCO)cc1)n1c(=O)n(C)c(=O)c2c1nc(-c1ccccc1Cl)n2-c1ccc(Cl)cc1 [Compound 131]	< 100 nM	≥ 5000 nM
Cn1c(=O)c2c(nc(-c3ccccc3Cl)n2-c2ccc(Cl)cc2)n(Cc2ccc(C(N)=O)cc2)c1=O [Compound 114]	< 100 nM	≥ 5000 nM
NC(=O)Cn1c(=O)c2c(nc(-c3ccccc3Cl)n2-c2ccc(Cl)cc2)n(C2CCCCC2)c1=O [Compound 106]	< 100 nM	≥ 5000 nM
Cn1c(=O)c2c(nc(-c3ccccc3Cl)n2-c2ccc(Cl)cc2)n(Cc2ccc(C(=O)NCCO)cc2)c1=O [Compound 112]	< 100 nM	≥ 5000 nM
O=c1[nH]c(=O)n(C2CCCCC2)c2nc(-c3ccccc3Cl)n(-c3ccc(Cl)cc3)c12 [Compound 100]	< 100 nM	≥ 5000 nM
Cn1c(=O)c2c(nc(-c3ccccc3Cl)n2-c2ccc(Cl)cc2)n(C2CCCCC2)c1=O [Compound 103]	< 100 nM	≥ 5000 nM
Cn1c(=O)c2c(nc(-c3ccccc3Cl)n2-c2ccc(Cl)cc2)n(Cc2ccc(S(N)(=O)=O)cc2)c1=O [Compound 135, 4-[[8-(2-chlorophenyl)-7-(4-chlorophenyl)-1-methyl-2,6-dioxopurin-3-yl]methyl]benzenesulfonamide]	< 100 nM	≥ 5000 nM
O=c1c2c(nc(-c3ccccc3Cl)n2-c2ccc(Cl)cc2)n(C2CCCCC2)c(=O)n1CCO [Compound 104, 8-(2-chlorophenyl)-7-(4-chlorophenyl)-3-cyclohexyl-1-(2-hydroxyethyl)-2,3,6,7-tetrahydro-1H-purine-2,6-dione]	< 100 nM	≥ 5000 nM
COCCn1c(=O)c2c(nc(-c3ccccc3Cl)n2-c2ccc(Cl)cc2)n(C2CCCCC2)c1=O [Compound 101]	< 100 nM	≥ 5000 nM
NC(=O)c1ccc(Cn2c(=O)n(C[C@@H](O)CO)c(=O)c3c2nc(-c2ccccc2Cl)n3-c2ccc(Cl)cc2)cc1 [Compound 132, 4-[[8-(2-chlorophenyl)-7-(4-chlorophenyl)-1-[(2R)-2,3-dihydroxypropyl]-2,6-dioxopurin-3-yl]methyl]benzamide]	< 100 nM	≥ 5000 nM
NC(=O)Cn1c(=O)c2c(nc(-c3ccccc3Cl)n2-c2ccc(Cl)cc2)n(CC2CCOCC2)c1=O [Compound 125, 2-[8-(2-chlorophenyl)-7-(4-chlorophenyl)-3-(oxan-4-ylmethyl)-2,6-dioxopurin-1-yl]acetamide]	< 100 nM	≥ 5000 nM
O=c1c2c(nc(-c3ccccc3Cl)n2-c2ccc(Cl)cc2)n(C2CCCCC2)c(=O)n1CCCO [Compound 105]	< 100 nM	≥ 5000 nM
CC(=O)N1CCC(Cn2c(=O)n(C)c(=O)c3c2nc(-c2ccccc2Cl)n3-c2ccc(Cl)cc2)CC1 [Compound 107, 3-[(1-acetylpiperidin-4-yl)methyl]-8-(2-chlorophenyl)-7-(4-chlorophenyl)-1-methylpurine-2,6-dione]	< 100 nM	

Next, values leading:

IC50 (CB1 receptor)	IC50 (CB2 receptor)	Structure (SMILES)
< 100 nM	≥ 5000 nM	CS(=O)(=O)N1CCC(Cn2c(=O)n(CC(N)=O)c(=O)c3c2nc(-c2ncccc2Cl)n3-c2ccc(Cl)cc2)CC1 [Compound 170, 2-[7-(4-chlorophenyl)-8-(3-chloropyridin-2-yl)-3-[(1-methanesulfonylpiperidin-4-yl)methyl]-2,6-dioxopurin-1-yl]acetamide]
< 100 nM	≥ 5000 nM	CC(c1ccc(C(N)=O)cc1)n1c(=O)n(C[C@@H](O)CO)c(=O)c2c1nc(-c1ccccc1Cl)n2-c1ccc(Cl)cc1 (stereo in doubt) [Compound 150, 4-[(1S)-1-[8-(2-chlorophenyl)-7-(4-chlorophenyl)-1-[(2R)-2,3-dihydroxypropyl]-2,6-dioxopurin-3-yl]ethyl]benzamide]
< 100 nM	≥ 5000 nM	Cn1c(=O)c2c(nc(-c3ccccc3Cl)n2-c2ccc(Cl)cc2)n(Cc2ccc(S(N)(=O)=O)cn2)c1=O [Compound 159, 6-[[8-(2-chlorophenyl)-7-(4-chlorophenyl)-1-methyl-2,6-dioxopurin-3-yl]methyl]pyridine-3-sulfonamide]
< 100 nM	≥ 5000 nM	Cn1c(=O)c2c(nc(-c3ccccc3Cl)n2-c2ccc(Cl)cc2)n(Cc2ccc(C(=O)NC3CCOCC3)cn2)c1=O [Compound 165]
< 100 nM	≥ 5000 nM	Cn1c(=O)c2c(nc(-c3ccccc3Cl)n2-c2ccc(Cl)cc2)n(Cc2ccc(S(=O)(=O)NCCO)cn2)c1=O [Compound 164, 6-[[8-(2-chlorophenyl)-7-(4-chlorophenyl)-1-methyl-2,6-dioxopurin-3-yl]methyl]-N-(2-hydroxyethyl)pyridine-3-sulfonamide]
< 100 nM	≥ 5000 nM	NC(=O)Cn1c(=O)c2c(nc(-c3ccccc3Cl)n2-c2ccc(Cl)cc2)n(CC2CCS(=O)(=O)CC2)c1=O [Compound 136, 2-[8-(2-chlorophenyl)-7-(4-chlorophenyl)-3-[(1,1-dioxo-1λ^6-thian-4-yl)methyl]-2,6-dioxopurin-1-yl]acetamide]
< 100 nM		CC(C(N)=O)n1c(=O)c2c(nc(-c3ccccc3Cl)n2-c2ccc(Cl)cc2)n(CC2CCS(=O)(=O)CC2)c1=O (stereo in doubt) [Compound 142, (2S)-2-[8-(2-chlorophenyl)-7-(4-chlorophenyl)-3-[(1,1-dioxo-1 lambda6-thian-4-yl)methyl]-2,6-dioxopurin-1-yl]propanamide]
